Measured values: ChEMBL document CHEMBL6109105, “Design, synthesis and antibacterial evaluation of oxazolidinone derivatives containing N-methylglycyl or quaternary ammonium salts” (Bioorg Med Chem, 2025)
≈ marks a conversion by molar mass, not a printed value.

What was measured:
Enterococcus faecalis = test: Antibacterial activity against Enterococcus faecalis ATCC 29212 assessed as inhibition of bacterial growth incubated for 16 to 18 hrs by microbroth dilution method; type: functional; details: time 16-18 hrs, read-out: MIC100
[1] = system: Stenotrophomonas maltophilia; test: Antibacterial activity against Stenotrophomonas maltophilia ATCC 17808 assessed as inhibition of bacterial growth incubated for 16 to 18 hrs by microbroth dilution method; type: functional; details: time 16-18 hrs, read-out: MIC100
Staphylococcus aureus [2] = test: Antibacterial activity against Staphylococcus aureus ATCC 29213 assessed as inhibition of bacterial growth incubated for 16 to 18 hrs by microbroth dilution method; type: functional; details: time 16-18 hrs, read-out: MIC100
[3] = Hemolytic activity in sheep RBC assessed as hemolysis incubated for 1 hrs by microplate reader analysis; type: toxicity, cell-based, Ovis aries, Erythrocyte; details: sheep red blood cells
Escherichia coli = test: Antibacterial activity against Escherichia coli ATCC 25922 assessed as inhibition of bacterial growth incubated for 16 to 18 hrs by microbroth dilution method; type: functional; details: time 16-18 hrs, read-out: MIC100
Streptococcus pneumoniae = test: Antibacterial activity against penicillin-resistant Streptococcus pneumoniae; type: functional
Enterococcus = test: Antibacterial activity against vancomycin-resistant enterococcus; type: functional
Staphylococcus aureus [4] = test: Antibacterial activity against methicillin-sensitive Staphylococcus aureus; type: functional
Staphylococcus aureus [5] = test: Antibacterial activity against methicillin-resistant Staphylococcus aureus; type: functional

Structure (SMILES) | MIC (Enterococcus faecalis) [µg/mL] | MIC [1] [µg/mL] | MIC (Staphylococcus aureus [2]) [µg/mL] | MIC (Escherichia coli) [µg/mL] | HC50 at 1 h [3] [µg/mL] | MIC (Streptococcus pneumoniae) [µg/mL] | MIC (Enterococcus) [µg/mL] | MIC (Staphylococcus aureus [4]) [µg/mL] | MIC (Staphylococcus aureus [5]) [µg/mL]
CN[C@H](CC(C)C)C(=O)N[C@H]1C(=O)N[C@@H](CC(N)=O)C(=O)N[C@H]2C(=O)N[C@H]3C(=O)N[C@H](C(=O)N[C@H](C(=O)O)c4cc(O)cc(O)c4-c4cc3ccc4O)[C@H](O)c3ccc(c(Cl)c3)Oc3cc2cc(c3O[C@@H]2O[C@H](CO)[C@@H](O)[C@H](O)[C@H]2O[C@H]2C[C@](C)(N)[C@H](O)[C@H](C)O2)Oc2ccc(cc2Cl)[C@H]1O [VANCOMYCIN] | 1 (≈ 0.69 µM) | – | – | – | – | – | – | – | –
CCC[N+](C)(C)CC(=O)N1CCN(c2ccc(N3C[C@H](CNC(C)=O)OC3=O)cc2F)CC1.[Br-] | 64 | > 128 | 64 | > 128 | > 1280 | – | – | – | –
CC(=O)NC[C@H]1CN(c2ccc(N3CCN(C(=O)C[N+](C)(C)Cc4ccc(C#N)cc4)CC3)c(F)c2)C(=O)O1.[Br-] | 32 | > 128 | > 128 | > 128 | > 1280 | – | – | – | –
Br.CC(=O)NC[C@H]1CN(c2ccc(N3CCN(C(=O)C[N+](C)(C)Cc4ccc([N+](=O)[O-])cc4)CC3)c(F)c2)C(=O)O1 | 128 | > 128 | 128 | > 128 | > 1280 | – | – | – | –
CC(=O)NC[C@H]1CN(c2ccc(N3CCN(Cc4ccc([N+](=O)[O-])o4)CC3)c(F)c2)C(=O)O1 [RANBEZOLID] | – | – | – | – | – | 0.06 (≈ 0.13 µM) | 0.06 (≈ 0.13 µM) | 0.06 (≈ 0.13 µM) | 0.06 (≈ 0.13 µM)
CC(=O)NC[C@H]1CN(c2ccc(N3CCN(C(=O)CN(C)Cc4cccc(C#N)c4)CC3)c(F)c2)C(=O)O1 | 4 (≈ 7.65 µM) | > 128 | 8 (≈ 15.3 µM) | > 128 | > 1280 | – | – | – | –
CCCCC[N+](C)(C)CC(=O)N1CCN(c2ccc(N3C[C@H](CNC(C)=O)OC3=O)cc2F)CC1.[Br-] | 16 | > 128 | > 128 | > 128 | > 1280 | – | – | – | –
CC(=O)NC[C@H]1CN(c2ccc(N3CCN(C(=O)CN(C)Cc4cccc(Br)c4)CC3)c(F)c2)C(=O)O1 | 4 (≈ 6.94 µM) | > 128 | 8 (≈ 13.9 µM) | > 128 | > 1280 | – | – | – | –

Continued by falling MIC (Enterococcus faecalis), values first:

MIC (Enterococcus faecalis) [µg/mL] | MIC [1] [µg/mL] | MIC (Staphylococcus aureus [2]) [µg/mL] | MIC (Escherichia coli) [µg/mL] | Structure (SMILES) | HC50 at 1 h [3] [µg/mL] | MIC (Streptococcus pneumoniae) [µg/mL] | MIC (Enterococcus) [µg/mL] | MIC (Staphylococcus aureus [4]) [µg/mL] | MIC (Staphylococcus aureus [5]) [µg/mL]
4 (≈ 8.04 µM) | > 128 | 16 (≈ 32.2 µM) | > 128 | CC(=O)NC[C@H]1CN(c2ccc(N3CCN(C(=O)CN(C)Cc4ccccc4)CC3)c(F)c2)C(=O)O1 | > 1280 | – | – | – | –
2 (≈ 3.76 µM) | > 128 | 16 (≈ 30.1 µM) | > 128 | CC(=O)NC[C@H]1CN(c2ccc(N3CCN(C(=O)CN(C)Cc4ccc(Cl)cc4)CC3)c(F)c2)C(=O)O1 | > 1280 | – | – | – | –
2 (≈ 3.79 µM) | > 128 | 16 (≈ 30.3 µM) | > 128 | COc1cccc(CN(C)CC(=O)N2CCN(c3ccc(N4C[C@H](CNC(C)=O)OC4=O)cc3F)CC2)c1 | > 1280 | – | – | – | –
2 (≈ 3.91 µM) | > 128 | 16 (≈ 31.3 µM) | > 128 | CC(=O)NC[C@H]1CN(c2ccc(N3CCN(C(=O)CN(C)Cc4ccc(C)cc4)CC3)c(F)c2)C(=O)O1 | > 1280 | – | – | – | –
2 (≈ 3.76 µM) | > 128 | 8 (≈ 15 µM) | > 128 | CC(=O)NC[C@H]1CN(c2ccc(N3CCN(C(=O)CN(C)Cc4cccc(Cl)c4)CC3)c(F)c2)C(=O)O1 | > 1280 | – | – | – | –
